Test results as given in patent US11304929B2, “Tosylacetate based compounds and derivatives thereof as PHGDH inhibitors” (priority 2017, dated 2022).
Like-named read-outs stand apart in the source and are kept apart here.

Tests used:
PHGDH = PHGDH (Homo sapiens (Human), UniProt O43175); assay: 3-Phosphoglycerate Dehydrogenase (PHGDH) Fluorescence Intensity Assay, run at two NAD/3-PG ratios: PHGDH_HIGH_NAD/3-PG (250 μM NAD/500 μM 3-PG) and PHGDH_500_NAD/3-PG (500 μM NAD/500 μM 3-PG); type: biochemical
PHGDH, sequence (O43175 2-533 limits assumed): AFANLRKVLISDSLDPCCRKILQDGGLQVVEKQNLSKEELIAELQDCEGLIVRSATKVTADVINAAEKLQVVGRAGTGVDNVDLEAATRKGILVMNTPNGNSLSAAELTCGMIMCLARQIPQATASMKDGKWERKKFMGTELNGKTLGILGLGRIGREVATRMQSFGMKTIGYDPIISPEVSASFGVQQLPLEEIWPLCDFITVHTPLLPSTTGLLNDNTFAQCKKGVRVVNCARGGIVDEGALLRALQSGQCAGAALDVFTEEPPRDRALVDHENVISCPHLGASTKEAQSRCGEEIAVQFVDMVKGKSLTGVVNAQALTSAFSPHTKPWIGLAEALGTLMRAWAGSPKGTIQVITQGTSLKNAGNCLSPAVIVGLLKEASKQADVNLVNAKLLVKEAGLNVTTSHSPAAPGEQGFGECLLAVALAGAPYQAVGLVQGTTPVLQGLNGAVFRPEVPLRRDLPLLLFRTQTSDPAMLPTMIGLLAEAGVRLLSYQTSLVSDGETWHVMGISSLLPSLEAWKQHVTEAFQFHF

MDA-MB-468 = assay: 13C3 Serine Assay MDA-MB-468 (13C3 serine levels by LC/MS/MS); type: cell-based
[1] = 250 μM NAD/500 μM 3-PG, read-out: IC50 (PHGDH_HIGH_NAD/3-PG)
[2] = Homo sapiens, MDA-MB-468 cells, 13C3 serine levels by LC/MS/MS, read-out: IC50 (13CSERINE)
[3] = 500 μM NAD/500 μM 3-PG, read-out: IC50 (PHGDH_500_NAD/3-PG)

Compound | IC50 (PHGDH; [1]) [µM] | IC50 (MDA-MB-468; [2]) [µM] | other results
CC(C)OC(=O)CS(=O)(=O)c1ccc([C@@H](C)NC(=O)c2cc3cc(Cl)c(-c4cnn(CCN5CCOCC5)c4)cc3n2C)cc1 [Example 01-026, propan-2-yl 2-{4-[(1R)-1-[(5-chloro-1-methyl-6-{1-[2-(morpholin-4-yl)ethyl]-1H-pyrazol-4-yl}-1H-indol-2-yl)formamido]ethyl]benzenesulfonyl}acetate] | 1.35 | 0.0359 | 
Cc1cc(Cl)c2cc(C(=O)N[C@H](C)c3ccc(S(=O)(=O)C(C)(C)C(N)=O)cc3)n(C)c2c1 [Example 15-007, N-[(1R)-1-[4-(1-carbamoyl-1-methylethanesulfonyl)phenyl]ethyl]-4-chloro-1,6-dimethyl-1H-indole-2-carboxamide] |  | 3.22 | 
COC(=O)CS(=O)(=O)c1ccc([C@@H](C)NC(=O)c2cc3c(Cl)cc(-c4cnn(C)c4)cc3n2C)cc1 [Example 01-003, methyl 2-{4-[(1R)-1-{[4-chloro-1-methyl-6-(1-methyl-1H-pyrazol-4-yl)-1H-indol-2-yl]formamido}ethyl]benzenesulfonyl}acetate] | 0.905 | 0.109 | 
COC(=O)CS(=O)(=O)c1ccc([C@@H](CO)NC(=O)c2cc3c(Cl)c(Cl)c(C)cc3n2C)cc1 [Example 01-007, methyl 2-{4-[(1S)-1-[(4,5-dichloro-1,6-dimethyl-1H-indol-2-yl)formamido]-2-hydroxyethyl]benzenesulfonyl}acetate] | 0.121 | 0.005 | 
COC(=O)CS(=O)(=O)c1ccc([C@@H](C)NC(=O)c2cc(-c3ccccc3)nn2C)cn1 [Example 02-010, methyl 2-({5-[(1R)-1-[(1-methyl-3-phenyl-1H-pyrazol-5-yl)formamido]ethyl]pyridin-2-yl}sulfonyl)acetate] | 3.69 | 0.594 | 
Cc1cc(Cl)c2cc(C(=O)N[C@H](C)c3ccc(S(=O)(=O)CC(=O)OCCO)cc3)n(C)c2c1 [Example 09-007, 2-hydroxyethyl 2-{4-[(1R)-1-[(4-chloro-1,6-dimethyl-1H-indol-2-yl)formamido]ethyl]benzenesulfonyl}acetate] | 0.166 | 0.0239 | 
Cc1cc(Cl)c2cc(C(=O)N[C@H](C)c3ccc(S(=O)(=O)C4(C(=O)O)CCOCC4)cc3)n(C)c2c1 [Example 07-002, 4-{4-[(1R)-1-[(4-chloro-1,6-dimethyl-1H-indol-2-yl)formamido]ethyl]benzenesulfonyl}oxane-4-carboxylic acid] | 0.007 | 6.9 | 
CCOC(=O)CS(=O)(=O)c1ccc([C@@H](C)NC(=O)c2cc3c(Cl)cc(-c4cnn(C)c4)cc3n2C)cc1 [Example 01-009, ethyl 2-{4-[(1R)-1-{[4-chloro-1-methyl-6-(1-methyl-1H-pyrazol-4-yl)-1H-indol-2-yl]formamido}ethyl]benzenesulfonyl}acetate] | 0.815 | 0.0441 | 
Cc1nc2c(cc(C(=O)N[C@H](CO)c3ccc(S(=O)(=O)CC(=O)O)cc3)n2C)c(Cl)c1Cl [Example 03-011, 2-{4-[(1S)-1-({4,5-dichloro-1,6-dimethyl-1H-pyrrolo[2,3-b]pyridin-2-yl}formamido)-2-hydroxyethyl]benzenesulfonyl}acetic acid] | 0.009 | 2 | 
C[C@@H](NC(=O)c1cc(-c2ccc(F)cc2)nn1C)c1ccc(S(=O)(=O)CC(=O)NOCCN2CCOCC2)cc1 [Example 15-001, 3-(4-fluorophenyl)-1-methyl-N-[(1R)-1-[4-({[2-(morpholin-4-yl)ethoxy]carbamoyl}methanesulfonyl)phenyl]ethyl]-1H-pyrazole-5-carboxamide] |  | 55.4 | 
COC(=O)CS(=O)(=O)c1ccc([C@@H](CO)NC(=O)c2cc3c(Cl)cc(C)cc3n2C)cc1 [Example 01-013, methyl 2-{4-[(1S)-1-[(4-chloro-1,6-dimethyl-1H-indol-2-yl)formamido]-2-hydroxyethyl]benzenesulfonyl}acetate] | 0.087 |  | IC50 (MDA-MB-468; Homo sapiens, MDA-MB-468, read-out: IC50 (13CSERINE)): 0.0083 µM
CCOC(=O)CS(=O)(=O)c1ccc([C@@H](CO)NC(=O)c2cc3c(Cl)cc(C)cc3n2C)cc1 [Example 01-005, ethyl 2-{4-[(1S)-1-[(4-chloro-1,6-dimethyl-1H-indol-2-yl)formamido]-2-hydroxyethyl]benzenesulfonyl}acetate] | 0.223 | 0.0033 | 
COC(=O)C(C)(C)S(=O)(=O)c1ccc([C@@H](C)NC(=O)c2cc(-c3ccc(F)cc3)nn2C)cc1 [Example 06-002, methyl 2-{4-[(1R)-1-{[3-(4-fluorophenyl)-1-methyl-1H-pyrazol-5-yl]formamido}ethyl]benzenesulfonyl}-2-methylpropanoate] | 14.7 | 1.88 | 
Cc1cc(Cl)c2cc(C(=O)N[C@H](C)c3ccc(S(=O)(=O)CC(=O)OC(C)C)cc3)n(C)c2c1 [Example 01-018, propan-2-yl 2-{4-[(1R)-1-[(4-chloro-1,6-dimethyl-1H-indol-2-yl)formamido]ethyl]benzenesulfonyl}acetate] |  | 0.0663 | 
CCOC(=O)CS(=O)(=O)c1ccc([C@@H](C)NC(=O)c2cc(-n3ccc4ccccc43)nn2C)cc1 [Example 15-005, ethyl 2-{4-[(1R)-1-{[3-(1H-indol-1-yl)-1-methyl-1H-pyrazol-5-yl]formamido}ethyl]benzenesulfonyl}acetate] |  | 0.309 | 
C[C@@H](NC(=O)c1cc(-c2ccc(F)cc2)nn1C)c1ccc(S(=O)(=O)CC(=O)NOC2CCN(C)CC2)cc1 [Example 15-002, 3-(4-fluorophenyl)-1-methyl-N-[(1R)-1-[4-({[(1-methylpiperidin-4-yl)oxy]carbamoyl}methanesulfonyl)phenyl]ethyl]-1H-pyrazole-5-carboxamide] |  | 85.3 | 
COC(=O)CS(=O)(=O)c1ccc([C@@H](C)NC(=O)c2cc3c(Cl)cc(C)cc3n2C)nc1 [Example 01-029, methyl 2-({6-[(1R)-1-[(4-chloro-1,6-dimethyl-1H-indol-2-yl)formamido]ethyl]pyridin-3-yl}sulfonyl)acetate] |  | 0.0514 | 
Cc1cc(Cl)c2cc(C(=O)N[C@H](C)c3ccc(S(=O)(=O)CC(=O)CS(=O)(=O)c4ccc([C@@H](C)NC(=O)c5cc6c(Cl)cc(C)cc6n5C)cc4)cc3)n(C)c2c1 [Example 15-008, 4-chloro-N-[(1R)-1-[4-(3-{4-[(1R)-1-[(4-chloro-1,6-dimethyl-1H-indol-2-yl)formamido]ethyl]benzenesulfonyl}-2-oxopropanesulfonyl)phenyl]ethyl]-1,6-dimethyl-1H-indole-2-carboxamide] |  | 0.0119 | 
Cc1cc(Cl)c2cc(C(=O)N[C@H](C)c3ccc(S(=O)(=O)CC(=O)OCCOC(=O)CS(=O)(=O)c4ccc([C@@H](C)NC(=O)c5cc6c(Cl)cc(C)cc6n5C)cc4)cc3)n(C)c2c1 [Example 15-011, 2-[(2-{4-[(1R)-1-[(4-chloro-1,6-dimethyl-1H-indol-2-yl)formamido]ethyl]benzenesulfonyl}acetyl)oxy]ethyl 2-{4-[(1R)-1-[(4-chloro-1,6-dimethyl-1H-indol-2-yl)formamido]ethyl]benzenesulfonyl}acetate] |  | 0.249 | 
CCOC(=O)CS(=O)(=O)c1ccc([C@@H](C)NC(=O)c2cc(-n3ncc4ccccc43)nn2C)cc1 [Example 15-006, ethyl 2-{4-[(1R)-1-{[3-(1H-indazol-1-yI)-1-methyl-1H-pyrazol-5-yl]formamido}ethyl]benzenesulfonyl}acetate] |  |  | IC50 (MDA-MB-468; MDA-MB-468 cells, 13C3 serine levels by LC/MS/MS, read-out: IC50 (13CSERINE)): 0.0733 µM
Cc1cc(Cl)c2cc(C(=O)N[C@H](C)c3ccc(S(=O)(=O)CC(=O)CCC(=O)O)cc3)n(C)c2c1 [Example 15-003, 5-{4-[(1R)-1-[(4-chloro-1,6-dimethyl-1H-indol-2-yl)formamido]ethyl]benzenesulfonyl}-4-oxopentanoic acid] |  | 9.64 | 
Cc1cc(Cl)c2cc(C(=O)N[C@H](C)c3ccc(S(=O)(=O)CC(=O)N(C)C)cc3)n(C)c2c1 [Example 15-009, 4-chloro-N-[(1R)-1-{4-[(dimethylcarbamoyl)methanesulfonyl]phenyl}ethyl]-1,6-dimethyl-1H-indole-2-carboxamide] |  | 3.39 | 
CONC(=O)CS(=O)(=O)c1ccc([C@@H](C)NC(=O)c2cc(-c3ccc(F)cc3)nn2C)cc1 [Example 15-004, 3-(4-fluorophenyl)-N-[(1R)-1-{4-[(methoxycarbamoyl)methanesulfonyl]phenyl}ethyl]-1-methyl-1H-pyrazole-5-carboxamide] |  | 6.27 | 
CCOC(=O)CS(=O)(=O)c1ccc([C@@H](C)NC(=O)c2cc(-c3ccccc3)n(C)n2)cc1 [Example 15-010, ethyl 2-{4-[(1R)-1-[(1-methyl-5-phenyl-1H-pyrazol-3-yl)formamido]ethyl]benzenesulfonyl}acetate] |  | 1.3 | 
C[C@@H](NC(=O)c1cc(-c2ccccc2)nn1C)c1ccc(S(=O)(=O)CC(=O)OCCF)cc1 [Example 10-004, 2-fluoroethyl 2-{4-[(1R)-1-[(1-methyl-3-phenyl-1H-pyrazol-5-yl)formamido]ethyl]benzenesulfonyl}acetate] | 1.44 |  | 
Cc1cc2c(cc(C(=O)N[C@H](CO)c3ccc(S(=O)(=O)CC(=O)OCCCO)cc3)n2C)c(Cl)c1Cl [Example 09-040, 3-hydroxypropyl 2-{4-[(1S)-1-[(4,5-dichloro-1,6-dimethyl-1H-indol-2-yl)formamido]-2-hydroxyethyl]benzenesulfonyl}acetate] |  |  | IC50 (PHGDH; [3]): 0.19 µM
Cc1cc2c(cc(C(=O)N[C@H](C)c3ccc([S+]([O-])CC(=O)OC(C)C)cc3)n2C)c(Cl)c1Cl (stereo partly drawn) [Example 13-011, propan-2-yl 2-{4-[(1R)-1-[(4,5-dichloro-1,6-dimethyl-1H-indol-2-yl)formamido]ethyl]benzenesulfinyl}acetate] |  |  | IC50 (PHGDH; [3]): 1.74 µM
Cc1cc2c(cc(C(=O)N[C@H](CO)c3ccc([S@+]([O-])CC(=O)OC(C)C)cc3)n2C)c(Cl)c1Cl [Example 13-001, propan-2-yl 2-[(R)-4-[(1S)-1-[(4,5-dichloro-1,6-dimethyl-1H-indol-2-yl)formamido]-2-hydroxyethyl]benzenesulfinyl]acetate] | 0.204 |  | IC50 (PHGDH; [3]): 0.305 µM
